What was measured:
[1] = molecular target: HemATN (HemAT sensing domain, residues 1 to 178) (Bacillus subtilis, UniProt O07621); details: 50 uM protein, 3 mM ethanol, modified PBS pH 8.0, 10% D2O, 298 K; heme not involved (UV spectra)
[2] = molecular target: McpBC (McpB cytoplasmic region, residues 305 to 662) (Bacillus subtilis, UniProt P39215); details: 50 uM protein, 3 mM ethanol, PBS in D2O pH 7.4, 298 K
Sequence of McpBC (McpB cytoplasmic region, residues 305 to 662) (P39215 305-662): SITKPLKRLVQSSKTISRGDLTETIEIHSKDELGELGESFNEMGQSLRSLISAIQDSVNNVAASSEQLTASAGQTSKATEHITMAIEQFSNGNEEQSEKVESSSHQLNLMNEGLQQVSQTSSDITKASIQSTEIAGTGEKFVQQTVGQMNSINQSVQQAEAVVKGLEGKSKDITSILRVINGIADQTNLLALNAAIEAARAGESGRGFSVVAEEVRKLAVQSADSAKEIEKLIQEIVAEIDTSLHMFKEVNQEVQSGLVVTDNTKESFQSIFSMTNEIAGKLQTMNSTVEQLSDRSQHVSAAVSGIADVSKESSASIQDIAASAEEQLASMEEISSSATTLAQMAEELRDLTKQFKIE

Sequence of HemATN (HemAT sensing domain, residues 1 to 178) (O07621 1-178): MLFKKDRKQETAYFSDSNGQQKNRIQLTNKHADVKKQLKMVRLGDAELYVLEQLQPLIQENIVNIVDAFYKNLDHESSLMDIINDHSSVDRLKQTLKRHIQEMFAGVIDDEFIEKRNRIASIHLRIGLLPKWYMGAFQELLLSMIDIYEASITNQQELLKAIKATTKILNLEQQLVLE

STD/1H area ratio, -CH3 (-CH2 0.85) [1]: 0.27 | saturation fraction (STD/1H area ratio, -CH3) [2]: 0.23
SMILES: CCO [ethanol]
